Results published in ChEMBL document CHEMBL3886580, “B-RAF kinase inhibitors” (2016).

Molecular target: Serine/threonine-protein kinase B-raf (Homo sapiens, UniProt P15056, V600E)
Assay: B-RAF (V600E) Kinase Assay: In a dilution series 10 uL/well of test substance solution are placed in a multiwell plate. The dilution series is selected so that generally a range of concentrations of 2 uM to 0.119 nM or 0.017 nM is covered. If necessary the initial concentration of 2 uM is changed to 50 uM, 10 uM or 0.4 uM or 0.2857 uM and further dilution is carried out accordingly. The final concentration of DMSO is 5%. 10 uL/well of the B-Raf (V600E)-kinase solution are pipetted in (containing 0.5 ng B-Raf (V600E)-kinase (e.g. from Upstate) in 20 mM Tris-HCl pH 7.5, 0.1 mM EDTA, 0.1 mM EGTA, 0.286 mM sodium orthovanadate, 10% glycerol, 1 mg/mL bovine serum albumin, 1 mM dithiothreitol) and the mixture is incubated for 1 h at RT under with shaking. The kinase reaction is started by the addition of 20 uL/well ATP solution [final concentration: 250 uM ATP, 30 mM Tris-HCl pH 7.5, 0.02% Brij, 0.2 mM sodium orthovanadate, 10 mM magnesium acetate, 0.1 mM EGTA, phosphatase cocktail (Sigma, #P2850, dilution recommended by the manufacturer)] and 10 uL/well MEK1 solution [containing 50 ng biotinylated MEK1 (prepared from purified MEK1 according to standard procedure, e.g. with EZ-Link Sulpho-NHS-LC-Biotin reagent, Pierce, #21335)] and carried out for 60 min at RT with constant shaking. The reaction is stopped by the addition of 12 uL/well of a 100 mM EDTA solution and incubation is continued for a further 5 min. 55 uL/well of the reaction solution are transferred into a streptavidin-coated plate (e.g. Streptawell HighBond, Roche, #11989685001) and shaken gently for 1 h at RT, in order to bind biotinylated MEK1 to the plate. After elimination of the liquid the plate is washed five times with 200 uL/well of 1ÿPBS and 100 uL/well solution of primary antibody plus europium-labelled secondary antibody [Anti Phospho-MEK (Ser217/221), Cell Signaling, #9121 and Eu-N1 labelled goat-anti-rabbit antibody, Perkin Elmer, #AD0105] is added, the primary antibody is diluted 1:2000 and the secondary antibody is diluted to 0.4-0.5 ug/mL in Delfia Assay Buffer (Perkin Elmer, #1244-111). After 1 h shaking at RT the solution is poured away and washed five times with 200 uL/well Delfia Wash Buffer (Perkin Elmer, #4010-0010/#1244-114). After the addition of 200 uL/well Enhancement Solution (Perkin Elmer, #4001-0010/#1244-105) the mixture is shaken for 10 min at RT and then measured in a Wallac Victor using the program "Delfia Time Resolved Fluorescence (Europium)". IC50 values are obtained from these dosage-activity curves using a software program (GraphPadPrizm).

Chain of Serine/threonine-protein kinase B-raf (P15056 2-766 V600E limits assumed): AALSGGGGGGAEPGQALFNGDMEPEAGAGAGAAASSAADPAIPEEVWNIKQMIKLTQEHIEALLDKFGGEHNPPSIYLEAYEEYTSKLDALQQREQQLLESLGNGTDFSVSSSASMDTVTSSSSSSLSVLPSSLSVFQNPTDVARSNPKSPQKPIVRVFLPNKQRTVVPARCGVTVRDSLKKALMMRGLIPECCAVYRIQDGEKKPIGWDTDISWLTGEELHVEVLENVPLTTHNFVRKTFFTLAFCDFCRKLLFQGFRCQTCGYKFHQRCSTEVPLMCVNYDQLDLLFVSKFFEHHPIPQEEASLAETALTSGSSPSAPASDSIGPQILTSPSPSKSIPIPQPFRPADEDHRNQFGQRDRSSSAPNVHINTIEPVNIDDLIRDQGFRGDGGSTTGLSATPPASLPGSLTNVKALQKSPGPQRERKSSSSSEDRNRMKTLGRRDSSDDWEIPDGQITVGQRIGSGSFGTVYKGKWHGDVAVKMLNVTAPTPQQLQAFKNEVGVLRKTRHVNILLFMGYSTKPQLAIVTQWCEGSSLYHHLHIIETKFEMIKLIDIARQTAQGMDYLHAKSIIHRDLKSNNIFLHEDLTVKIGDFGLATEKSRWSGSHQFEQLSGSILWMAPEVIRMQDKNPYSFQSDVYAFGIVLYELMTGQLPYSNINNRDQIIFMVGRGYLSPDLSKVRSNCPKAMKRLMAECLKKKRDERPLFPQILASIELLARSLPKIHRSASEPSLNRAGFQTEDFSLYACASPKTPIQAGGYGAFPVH

SMILES | IC50
Cc1ccc(NC(=O)c2ccc(C(C)(C)C)s2)cc1-n1cc(-c2cncc(N3CCN(CC(C)C)CC3)c2)nn1 | 18 nM
Cc1ccc(NC(=O)c2ccc(C(C)(C)C)s2)cc1-n1cc(-c2cncc(N3CCNCC3)c2)nn1 | 4 nM
CCN1CCN(c2cncc(-c3cn(-c4cc(C(=O)Nc5cc(C(C)(C)C)on5)ccc4C)nn3)c2)CC1C (stereo not given) | 11 nM
C=CCN1CCN(c2cncc(-c3cn(-c4cc(NC(=O)c5ccc(C(C)(C)C)s5)ccc4C)nn3)c2)CC1 | 13 nM
Cc1ccc(NC(=O)c2ccc(C(C)(C)C)s2)cc1-n1cc(-c2cncc(N3CCN(C)CC3)c2)nn1 | 6 nM
